Legend:
T2D KKAy mice = test: Euglycemic hyperinsulinemic clamp with tracers; format: in vivo, mouse
Experimental: Sterile silicone catheters (Dow-Corning) were placed into the jugular vein of mice under isoflurane anesthesia. The placed catheter was flushed with 200 U/mL heparin in saline and the free end of the catheter was directed subcutaneously via a blunted 14-gauge sterile needle and connected to a small tubing device that exited through the back of the animal. […] Hyperinsulinemic euglycemic clamps were performed on day 8 post-surgery on unrestrained, conscious mice as described elsewhere[82],[83], with some modifications. Mice were fasted for 6 h at which time insulin and glucose infusion were initiated (time 0). At 80 min prior to time 0 basal sampling was conducted, where whole-body glucose flux was traced by infusion of 0.05 μCi/min D-[3-^3H]-glucose (Perkin Elmer), after a priming 5 μCi bolus for 1 min. After the basal period, starting at time 0 D-[3-^3H]-glucose was continuously infused at the rate of 0.2 μCi/min and the infusion of insulin (Humulin, Eli Lilly) was initiated with a bolus of 80 mU/kg/min (10 µl volume for 1 min) then followed by continuous infusion of insulin at the dose of 8 mU/kg/min throughout the assay. Fifty percent dextrose (Hospira) was infused at variable rates (GIR) starting at the same time as the initiation of insulin infusion to maintain euglycemia at the targeted level of 150 mg/dL (8.3 mM). Blood glucose (BG) measurements were taken every ten minutes via tail vein sampling using a Contour glucometer (Bayer). After the mouse reached stable BG and GIR (typically, after 75 min since starting the insulin infusion; for some mice, a long time was required to achieve steady-state) a single bolus of 12 μCi of [1-^14C]-2-deoxy-D-glucose (Perkin Elmer) in 96 μl of saline was administered. Plasma samples (collected from centrifuged blood) for determination of tracers enrichment, glucose level, and insulin concentration were obtained at times −80, −20, −10, 0, and every 10 min starting at 80 min post-insulin (5 min after [1-^14C]-2-deoxy-D-glucose bolus was administered) until the conclusion of the assay at 140 min. Tissue samples were then collected from mice under isofluorane anesthesia from organs of interest (e.g., liver, heart, kidney, white adipose tissue, brown adipose tissue, gastrocnemius, soleus, etc.) for determination of 1-^14C]-2-deoxy-D-glucose tracer uptake. Plasma and tissue samples were processed as described previously. Briefly, plasma samples were deproteinized with Ba(OH)2 and ZnSO4 and dried to eliminate tritiated water. The glucose turnover rate (mg/kg-min) was calculated as the rate of tracer infusion (dpm/min) divided by the corrected plasma glucose specific activity (dpm/mg) per kg body weight of the mouse. Fluctuations from steady-state were accounted for by the use of Steele’s model. Plasma glucose was measured using the Analox GMD9 system (Analox Technologies).
Tissue samples (~30 mg each) were homogenized in 750 µl of 0.5% perchloric acid, neutralized with 10 M KOH, and centrifuged. The supernatant was then used for first measuring the abundance of total [1-^14C] signal (derived from both 1-^14C -2-deoxy-D-glucose, 1-^14C -2-deoxy-D-glucose 6 phosphate) and, following a precipitation step with 0.3 N […] and 0.3 N ZnSO4, for the measuring of non-phosphorylated 1-^14C -2-deoxy-D-glucose. Glycogen was isolated by ethanol precipitation from 30% KOH tissue lysates, as described. Insulin levels in plasma at T0 and T140 were measured using a Stellux ELISA rodent insulin kit (Alpco).

[1] = tested on: T1, SWELL1 protein in 3T3-F442A adipocytes; test: SWELL1 protein under glucolipotoxic stress (palmitate + glucose); format: cell-based, murine; conditions: 10 µM 96 h pretreatment, then 1 mM palmitate + 25 mM glucose 16 h
T1 construct: host or cells: 3T3-F442A preadipocytes and differentiated adipocytes (wild type)
Experimental: In the case of 3T3-F442A adipocytes, the WT and KO cells were treated with either vehicle (DMSO), 1 or 10 µM SN-40X (after 7–11 days of differentiation) for 96 h and then stimulated with 0 and 10 nM insulin/serum-containing media with vehicle (DMSO) or SN-40X for 15 min for SWELL1 detection. […] To simulate glucolipotoxicity, 8 mM sodium palmitate was dissolved in 18.4% fatty-acid free BSA at 37 °C in DMEM medium with 25 mM glucose to obtain a conjugation ratio of 1:3 palmitate:BSA[80].

primary hepatocytes = test: Signaling in cultured primary hepatocytes; format: cell-based, mouse; conditions: 10 µM, 24–48 h, SWELL1-dependent
Experimental: For primary hepatocytes isolation, the SWELL1^fl/fl (Wildtype, WT) and Albumin-Cre/SWELL1^fl/fl (Knockout, KO) mice were anesthetized using isoflurane. A 24 G i.v. catheter was inserted into the portal vein and a buffer containing HBSS (Ca^2+ and Mg^2+ free) + 0.5 mM EGTA was perfused through the liver at a rate of 4.5 mL/min. The portal vein was quickly cut after the perfusion began. The liver was perfused until it was free from blood and subsequently perfused with DMEM + 1x Pyruvate+ Type IV Collagenase (Sigma C5138) (1 mg/mL) for 4–5 min until the liver was soft. The liver was excised and put into 10 mL DMEM + collagenase solution. The tissue was broken down by agitation and passed through 25- and 10-mL pipette until the cells were free. The cells were suspended in 15 mL cold DMEM + 10% FBS + 1% P/S (penicillin and streptomycin). The cells were then passed through a 100 µm filter and spun at 50×g for 2 min. The supernatant was discarded and the cell pellet was washed with 25 mL of DMEM + 10% FBS + 1% P/S media three times. Cells were checked for viability by diluting 1:2 with Trypan blue and batches with >80% viability were used. The hepatocytes were then plated on Type I Collagen (75 µg/mL) coated dish with a density of 500,000 cells per well (6-well) in DMEM + 10% FBS + 1% P/S media.

In vivo pharmacokinetics = test: In vivo pharmacokinetics; set-up: species or system mouse; conditions: for T-half / AUC(0-inf) / Cmax / Oral Bioavailability (AUCp.o./AUCi.v.): 5 mg/kg; for T-half / AUC(0-inf) / Cmax / Oral Bioavailability (AUCp.o./AUCi.v.) / time plasma concentrations exceed those sufficient for induction of SWELL1 signaling activity (>~100 nM): mice; for T-half / AUC(0-inf) / Cmax: plasma; for AUC(0-inf) / Cmax: male, C57/BL6, mouse; for time plasma concentrations exceed those sufficient for induction of SWELL1 signaling activity (>~100 nM): 5 mg/kg i.p. or p.o.
Experimental: Male C57/BL6 mice were used in the study and assessed for a single dose (5 mg/kg) administration. The compounds were prepared in Cremaphor for i.p. and p.o dose routes and in 5% ethanol, 10% Tween-20, and water mix for i.v. route at a final concentration of 1 mg/mL. […] The blood samples were collected in tubes with K2 EDTA anticoagulant and further processed to collect plasma by centrifugation at 1383×g at 5 °C for 10 min. Samples were further processed in LC/MS to determine the concentration of the compounds. Non-compartmental analysis was performed to obtain the PK parameters using the PKPlus software package (Simulation Plus). The area under the plasma concentration-time curve (AUCinf) was calculated from time 0 to infinity where the Cmax is the maximal concentration achieved in plasma and t1/2 is the terminal elimination half-life. Oral bioavailability was calculated as AUCOral/AUCIV*100.

CCCCC1(C2CCCC2)Cc2cc(OCCCC(=O)O)c(Cl)c(Cl)c2C1=O (stereo not shown) [SN-401, 4-((2-butyl-6,7-dichloro-2-cyclopentyl-1-oxo-2,3-dihydro-1H-inden-5-yl)oxy)butanoic acid]
glucose incorporation into glycogen in liver, adipose, and skeletal muscle (T2D KKAy mice; KKAy mice): markedly increased | insulin-stimulated 2-DG uptake into iWAT, gWAT and myocardium (T2D KKAy mice; KKAy mice): enhanced | glucose-infusion rate (GIR) to maintain euglycemia (T2D KKAy mice; KKAy mice, 5 mg/kg i.p. 4 days, vs vehicle): higher | reduction of rate of glucose appearance (Ra) (T2D KKAy mice; baseline (Basal)): 40% | suppression of rate of glucose appearance (Ra) (T2D KKAy mice; during glucose/insulin infusion (Clamp)): 75% | prevention of palmitate/glucose-induced reduction of SWELL1 protein [1]: entirely prevented | pAS160 in primary hepatocytes (primary hepatocytes): robustly induces | T-half (In vivo pharmacokinetics; Intraperitoneal): 2.056 h | T-half (In vivo pharmacokinetics; Intravenous): 1.428 h | T-half (In vivo pharmacokinetics; Oral): 2.585 h | PK in adipose tissue (In vivo pharmacokinetics; iWAT, 5 mg/kg i.p. and p.o.): closely tracks serum concentrations | AUC(0-inf) (In vivo pharmacokinetics; ip, Intraperitoneal): 23000 ng·h/mL | Cmax (In vivo pharmacokinetics; ip, Intraperitoneal): 4370 ng/mL | AUC(0-inf) (In vivo pharmacokinetics; Intravenous): 5960 ng·h/mL | Cmax (In vivo pharmacokinetics; Intravenous): 5440 ng/mL | AUC(0-inf) (In vivo pharmacokinetics; Oral): 4680 ng·h/mL | Cmax (In vivo pharmacokinetics; Oral): 781 ng/mL | Oral Bioavailability (AUCp.o./AUCi.v.) (In vivo pharmacokinetics): 79% | time plasma concentrations exceed those sufficient for induction of SWELL1 signaling activity (>~100 nM) (In vivo pharmacokinetics): 8 to 12 h

CCCCC1(C2CCCC2)Cc2cc(OCCCCCC(=O)O)c(Cl)c(Cl)c2C1=O (stereo not shown) [SN-406, 6-((2-butyl-6,7-dichloro-2-cyclopentyl-1-oxo-2,3-dihydro-1H-inden-5-yl)oxy)hexanoic acid]
prevention of palmitate/glucose-induced reduction of SWELL1 protein [1]: entirely prevented | T-half (In vivo pharmacokinetics; Intraperitoneal): 1.809 h | T-half (In vivo pharmacokinetics; Intravenous): 0.7689 h | T-half (In vivo pharmacokinetics; Oral): 2.058 h | AUC(0-inf) (In vivo pharmacokinetics; ip, Intraperitoneal): 18200 ng·h/mL | Cmax (In vivo pharmacokinetics; ip, Intraperitoneal): 4300 ng/mL | AUC(0-inf) (In vivo pharmacokinetics; Intravenous): 6530 ng·h/mL | Cmax (In vivo pharmacokinetics; Intravenous): 15100 ng/mL | AUC(0-inf) (In vivo pharmacokinetics; Oral): 3130 ng·h/mL | Cmax (In vivo pharmacokinetics; Oral): 661 ng/mL | Oral Bioavailability (AUCp.o./AUCi.v.) (In vivo pharmacokinetics): 48% | time plasma concentrations exceed those sufficient for induction of SWELL1 signaling activity (>~100 nM) (In vivo pharmacokinetics): 8 to 12 h

Source: paper PMC8831520, “Small molecule SWELL1 complex induction improves glycemic control and nonalcoholic fatty liver disease in murine Type 2 diabetes” (Nature Communications, 2022)
